Where a name gives a salt, the structure may show the parent alone.
Tests used:
[1] = system: human glioblastoma cell line U-87; test: U-87 cell viability by luminescence (ATP-Glo kit, Promega); type: cell-based
Source text: FIG. 1.—ICI 118,551 is active as an antitumoral agent decreasing cell viability in the glioblastoma cell line and including the stem cell subpopulation. A: U-87 cell line expresses beta-adrenergic receptors type 2, as shown by confocal microscopy using a monoclonal antibody against human β2 adrenergic receptors (Abcam). B: ICI-118551 decreases viability of the human glioblastoma cell line U-87 either when grown in liquid suspension as oncospheres (gliospheres, stem cells) or in adhesion. Viability was quantified by luminescence using the ATP-Glo kit from Promega. C. β2-adrenergic receptor expression in the human glioblastoma cell line U87 was confirmed by mRNA expression by quantitative PCR in 3D cultures as gliospheres (HUVEC as positive control for β2-adrenergic receptor expression).

U-87 gliospheres = test: Gliosphere formation of U-87 cells under drug treatment; type: cell-based, human; settings: 10 to 100 μM; 72 hours of drug treatment
Experimental: (§1) A: photographs of gliospheres formation after 72 hours of drug treatment. U-87 cells were cultured in medium for gliosphere formation, and either treated with vehicle (control, on the left), or with ICI 118,551, and propranolol at different concentrations from 10 to 100 μM. […] B: Limit dilution assay experiment (ELDA) for oncosphere formation in the presence of different concentrations of ICI 118,551 and propranolol.
(§2) Following the protocol described elsewhere (Diaz-Guerra, E.; Lillo, M. A.; Santamaria, S.; Garcia-Sanz, J. A., Intrinsic cues and hormones control mouse mammary epithelial tree size. FASEB J 2012, 26 (9), 3844-53). Cells were detached from the plate with trypsin (Invitrogen) and plated in complete medium (DMEM/F-12 medium with GlutaMAX) supplemented with B27 (Gibco), 10 ng/ml epidermal growth factor (EGF: Invitrogen) and 10 ng/ml basic fibroblast growth factor (bFGF: Millipore) and they were maintained at 37° C. in 5% CO2. For the ELDA assay cells were dissociated to single cells with trypsin, and seeded at different dilutions (from 100 to 10 for U-87 cells) in sphere complete media following procedures described in Ponti, D et al., (Cancer Res 2005, 65 (13), 5506-11.). The final number of spheres was quantified at 14 days, and the final data and statistical significance was obtained with ELDA software (Hu, Y. et al J Immunol Methods 2009, 347 (1-2), 70-8). […]

U-87 stem cells = test: Extreme limited dilution assay (ELDA) for oncosphere formation; type: cell-based, human; settings: different concentrations; spheres quantified at 14 days
Experimental: as §1, §2

[2] = system: U-87 glioblastoma cell line; test: RT-qPCR of stemness and neural differentiation marker mRNAs in U-87; type: cell-based, human; settings: 48 hours; mRNA by RT-qPCR; dose-dependent
Experimental: FIG. 3.—ICI 118,551 and propranolol decreased stemness biomarker expression in U-87 glioblastoma cell line, but increased the neural differentiation markers. A: The treatment of U-87 with ICI-118,551 and propranolol during 48 hours decreases the expression of stemness associated genes as GD3 synthase, ALDH1, Prominin (CD133), Sox2 and Nanog, whereas B: favors the expression of genes involved in neural cell differentiation (MAP2, GFAP and Nestin). Expression of the corresponding mRNAs was measured by RT-qPCR.
(§3) RNAt was isolated using the Direct-zol RNA MiniPrep Kit (ZymoResearch) from U-87 cells washed with PBS, scraped off the plates and spun down. The pellet was treated with the Tri Reagent and homogenized for 5 min at room temperature before using the MiniPrep Kit as per instructions. The quality and concentration of the RNAt was evaluated by measuring the absorbance at 260, 230 and 280 nm with an ND-1000 spectrophotometer (NanoDrop Technologies, Wilmington, DE, USA). In all cases, the expected 260/280 (˜2.0) and 260/230 (2.0-2.2) ratio values accepted for pure RNA were obtained. To detect the two target miRs, 0.5 μg of the RNAt extracted from the cells was used for hybridization prior to measurement on the dual amperometric platform.
(§4) The qScript microRNA Quantification System (Quanta BioSciences, Inc., Gaithersburg, MD, USA) was used to assess miR-21 and miR-205 expression. In brief, cDNA was synthesized using the qScript microRNA cDNA Synthesis Kit, using 10 ng of initial RNA per PCR reaction. The PCR conditions consisted of an initial activation at 50° C. for 2 min, followed by 40 cycles of 95° C. for 5 s, and 60° C. for 30 s in LightCycler 480 Real-Time PCR System (Roche). The Ct (threshold cycle) value for each primer was normalized to that of RNU6. To assess gene expression, cDNA was synthesized with the transcriptor first strand cDNA synthesis Kit (Roche) under the following PCR conditions: 40 amplification cycles of 95° C. for 10 seconds, 60° C. for 30 seconds and 72° C. for 30 seconds. ACTB was used as a reference gene for normalization and the real-time PCR reactions were performed in triplicate using the PerfeCTa SYBR Green SuperMix (Quanta BioSciences) for miRNAs and the FastStart Universal SYBR Green Master (Roche) for gene expression. The expression level of each gene was determined by the relative standard curve method and the primer sequences for target genes were obtained from the Universal ProbeLibrary Assay Design Center.
However, mRNA from genes involved in neural cell differentiation, such as MAP2, GFAP and nestin (FIG. 3B), were increased in their expression (FIG. 3B). The expression of the corresponding mRNAs was measured by RT-qPCR.

U-87 xenografts = test: Xenograft of U-87 adherent cells in NSG mice; type: in vivo; settings: intraperitoneal; for decrease in the tumor volume: 10 mg/Kg body daily, from tumor volume around 100 mm^3, versus vehicle; for adverse effects: 10 mg/Kg body weight daily, NSG mice
Experimental: (§5) FIG. 4.—ICI 118,551 and Propranolol delay the tumor progression of U-87 xenografts in NSG immunodeppressed mice. A Xenograft using U-87 adherent cells: Mice (n=30) were inoculated with 10^6 cells of U-87 glioblastoma cell line, in the flank, as xenografts. Tumor volume was measured every 3 days. In A, when tumors reached around 100 mm^3 volume, mice were divided in 3 groups (n=9-10). One group was treated daily with 10 mg/Kg body weight with propranolol, another group with the same dose of ICI118,551, and the third group only with vehicle (DMSO). Drugs were intraperitoneally injected. […] B Xenograft using U-87 gliospheres: Mice were inoculated with 10^5 spheroids from the glioblastoma cell line U-87. Mice were divided in 3 groups of 9-10 animals and treated immediately after xenograft for 5 consecutive days with either 3 mg/Kg body weight of propranolol, or ICI 118,551, or only vehicle. The tumors were measured from the moment they were big enough to be sized.
Male 7-8 weeks old NOD scid gamma (NSG) mice were injected in the dorsal flank with a total of either 10^6 cells of U-87 cell line (A), or with 10^5 cells coming from disaggregated gliospheres (B). In the case of A, when tumor size reached 100 mm^3 volume, mice were divided at random in 3 groups, of 9/10 mice each. One group was treated with intraperitoneal daily injection of 10 mg/Kg body of propranolol, other group with the same amount of ICI118,551, and finally, a control group was injected with vehicle. Tumor size was measured by a caliper every 2-3 days. Mice were sacrificed when tumor volume average of the control group reached an end point established on our ethical procedures.
Xenografts were made using U-87 adherent cells: Mice (n=30) were inoculated with 10^6 cells of U-87 glioblastoma cell line, in the flank, as xenografts. Tumor volume was measured every 3 days. When tumors reached around 100 mm^3 volume, mice were divided in 3 groups (n=9-10). One group was treated daily with 10 mg/Kg body weight with propranolol, another group with the same dose of ICI118,551, and the third group only with vehicle (DMSO). Drugs were intraperitoneally injected.

[3] = system: U-87 gliospheres xenografts; test: Xenograft of U-87 gliospheres in NSG mice; type: in vivo; settings: 3 mg/Kg body weight, 5 consecutive days immediately after xenograft, intraperitoneal
Experimental: as §5, with “Mice were divided in 3 groups of 9-10 animals and treated immediately after xenograft for 5 consecutive days with either 3 mg/Kg body weight of propranolol, or ICI 118,551, or only vehicle.” left out
In the case of B, mice were divided in 3 groups of 10 mice, and were treated the first 5 days after xenograft establishment with intraperitoneal injection of propranolol, or ICI118,551 at 3 mg/Kg body, or vehicle. […] From this moment on, tumor size was measured every 2-3 days along 4 weeks, and then the mice were sacrificed.
On the other hand, xenografts using U-87 gliospheres were also used. […] The tumors were measured from the moment they were big enough to be sized.

[4] = system: U87 Glioblastoma Cell Line; test: Expression of miR-21 and its targets PDCD4 and PTEN in U87 cells; type: cell-based, human; settings: 48 hours, increasing amounts
Experimental: FIG. 5. […] Furthermore, ICI increases the expression levels of […] targets such as PDCD4-proapoptotic agents1 (middle)—and PTEN—a glioblastoma suppressor (right).
as §3
as §4, with “ACTB was used as a reference gene for normalization and the real-time PCR reactions were performed in triplicate using the PerfeCTa SYBR Green SuperMix (Quanta BioSciences) for miRNAs and the FastStart Universal SYBR Green Master (Roche) for gene expression.” left out, “Center. […]” for “Center.”

β2-adrenergic receptor = settings: reported in the literature; cited from earlier work

Structure (SMILES) | differential sensitivity to the drug, adhesion versus 3D gliospheres ([1]; 2D cells in adhesion compared with 3D gliospheres in suspension) | viability of the cancer stem cells ([1]; 3D gliospheres, low μM concentrations) | viability of U-87 ([1]; different doses, grown in liquid suspension as oncospheres (gliospheres) or in adhesion, ATP-Glo luminescence) | inhibition of gliosphere formation (U-87 gliospheres) | ELDA dilution factor compared to control (U-87 stem cells) | expression of neural cell differentiation genes MAP2, GFAP and nestin [2] | expression of stemness associated genes GD3 synthase, ALDH1, prominin (CD 133), Sox2 and nanog [2] | decrease in the tumor volume (U-87 xenografts) | adverse effects (U-87 xenografts) | rate of tumor growth versus vehicle treated mice [3] | expression level of PDCD4 [4] | expression level of PTEN [4] | mRNA-21 expression ([4]; compared with Propranolol) | β2/β1 selectivity ratio (β2-adrenergic receptor)
Cc1ccc(OCC(O)C(C)NC(C)C)c2c1CCC2 [ICI 118,551, erythro-D,L-1(methylinden-4-yloxy)-3-isopropylaminobutan-2-ol] | more sensitive the cells grown in adhesion than the 3D gliospheres | strongly affects the viability | decreased the viability | dose-dependent inhibition | increases | increased | decreased significantly | around 30% | no adverse effects observed | significant delay | increases | increases | notably decreased | at least 123
COc1ccc(OC)c(C(O)C(C)NC(C)(C)C)c1 (racemic) [Butoxamine, DL-erythro-α-(2,5-dimethoxyphenyl)-β-t-butyl aminopropanol hydrochloride] |  |  |  |  |  |  |  |  |  |  |  |  |  | at least 17
CC(C)NCC(O)COc1cccc2ccccc12 (stereo not shown) [propranolol] |  |  |  | dose-dependent inhibition | increases | increased | decreased significantly | around 30% | no adverse effects observed | significant delay |  |  |  | 

— US12622884B2, “Treatment and prevention of glioblastoma” (CONSEJO SUPERIOR DE INVESTIGACIONES CIENTÍFICAS, priority 2018, dated 2026)
